Test results reported in US11207312B2, “Metallo-beta-lactamase inhibitors and methods of use thereof” (priority 2017, dated 2021).

Key:
NDM-1 = NDM-1 (Klebsiella pneumoniae, UniProt C7C422); test: biochemical; format: biochemical; conditions: CCF2-FA fluorescence assay, 2 hours at 25° C.
Procedure, shortened: (§1)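 Each enzyme (final 1 pM NDM-1, 2 pM IMP-1, 30 pM VIM-1) was incubated with test inhibitor (20 μM to 0.00063 μM) and 1.25 μM CCF2-FA for 2 hours at 25° C in zinc-supplemented phosphate buffer, pH 7. Fluorescence at 460 nm was then read and IC50 fitted with four parameters.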

IMP-1 = IMP-1 (Serratia marcescens, UniProt P52699); test: biochemical; conditions: CCF2-FA fluorescence assay, 2 hours at 25° C.; read-out: IMP1 IC50
Procedure, shortened: as §1

VIM-1 = VIM-1 (Pseudomonas aeruginosa (strain ATCC 15692 / DSM 22644 / CIP 104116 / JCM 14847 / LMG 12228 / 1C / PRS 101 / PAO1), UniProt A0A0F7KYQ8); test: biochemical; conditions: CCF2-FA fluorescence assay, 2 hours at 25° C.; read-out: VIM1 IC50
Procedure, shortened: as §1

VIM-2 = VIM-2 (Escherichia coli, UniProt Q5U7L7); test: biochemical; conditions: CCF2-FA fluorescence assay; read-out: VIM2 IC50
[1] = tested on: Serratia marcescens expressing IMP-1 (CL5741); format: cell-based; conditions: with imipenem 1 μg/ml; 95% inhibition of bacterial growth
Procedure, shortened: (§2)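 MITC95 denotes the minimal test-compound level that, combined with 1 μg/ml imipenem, blocks 95% of bacterial growth, measured by absorbance. Overnight-grown clinical isolates were diluted 1:100 in CAMHB and incubated with both agents at 35° C for 22–24 h.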

[2] = tested on: Klebsiella pneumoniae expressing VIM-1 (IHMA599644); format: cell-based; conditions: with imipenem 1 μg/ml; 95% inhibition of bacterial growth
Procedure, shortened: as §2

[3] = tested on: Escherichia coli expressing NDM-1 (CLB30016); format: cell-based; conditions: with imipenem 1 μg/ml; 95% inhibition of bacterial growth
Procedure, shortened: as §2

[4] = tested on: P. aeruginosa MB9798 (efflux+, IMP-1 plasmid); conditions: for MB9798 MITC95 P. aeruginosa uM Efflux WT: efflux + (MB9798) strain, imipenem at 2 μg/mL, in the presence of a class A, C, D serine β-lactamase inhibitor closely related to relebactam; for Efflux ratio: fold difference between efflux+ (MB9798) and efflux− (MB9799) strains
Procedure, shortened: (§3)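 PAO1-derived isogenic pair (oprD+, inducible AmpC), efflux+ MB5919 or efflux− MB5890 parent, carrying an electroporated IMP-1 plasmid from a clinical isolate. Microbroth MIC with fixed imipenem and/or ceftazidime (usually CLSI breakpoint) plus fixed class A/C inhibitor; MBL inhibitor serially titrated, concentration restoring susceptibility recorded.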

[5] = tested on: P. aeruginosa MB9799 (efflux-, IMP-1 plasmid); format: cell-based, Pseudomonas aeruginosa; conditions: efflux − (MB9799) strain; imipenem at 2 μg/mL; in the presence of a class A, C, D serine β-lactamase inhibitor closely related to relebactam
Procedure, shortened: as §3

Chain of IMP-1 (P52699 whole entry, looked up, species assumed): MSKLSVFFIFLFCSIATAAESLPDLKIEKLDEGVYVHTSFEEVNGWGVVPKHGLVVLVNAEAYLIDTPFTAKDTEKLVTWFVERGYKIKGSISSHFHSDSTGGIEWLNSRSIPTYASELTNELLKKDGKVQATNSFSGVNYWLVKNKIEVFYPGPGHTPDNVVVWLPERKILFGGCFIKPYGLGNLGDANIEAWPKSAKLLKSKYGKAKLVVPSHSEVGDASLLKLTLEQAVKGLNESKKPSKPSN
Chain of NDM-1 (C7C422 whole entry, looked up, species assumed): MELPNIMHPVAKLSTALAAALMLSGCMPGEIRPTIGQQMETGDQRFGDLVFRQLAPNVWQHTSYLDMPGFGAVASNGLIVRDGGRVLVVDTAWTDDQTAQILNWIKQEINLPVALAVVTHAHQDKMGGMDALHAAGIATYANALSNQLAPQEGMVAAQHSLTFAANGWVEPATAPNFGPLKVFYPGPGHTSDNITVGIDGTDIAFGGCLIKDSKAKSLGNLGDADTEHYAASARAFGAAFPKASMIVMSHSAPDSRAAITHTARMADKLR

Compound | IC50 (NDM-1) [nM] | IC50 (IMP-1) [nM] | IC50 (VIM-1) [nM] | IC50 (VIM-2) [nM] | CL5741 S. marcescens MITC95 IMP [1] [µM] | IHMA599644 K. pneumoniae MITC95 VIM [2] [µM] | CLB30016 E. coli MITC95 NDM [3] [µM] | MB9798 MITC95 P. aeruginosa uM Efflux WT [4] [µM] | Efflux ratio [4] | MB9799 MITC95 P. aeruginosa uM Efflux Mutant [5] [µM]
NS(=O)(=O)c1c(S(=O)(=O)C2CNC2)ccc(N2CCC(CO)CC2)c1-c1nnn[nH]1 [Example 58, 6-(azetidin-3-ylsulfonyl)-3-[4-(hydroxymethyl)piperidin-1-yl]-2-(1H-tetrazol-5-yl)benzenesulfonamide] | 1.03 | 0.85 | 0.42 | 1.67 | 6.25 | 6.25 | 3.13 | 6.25 | 4.00 | 1.56
NCCNS(=O)(=O)C1CCN(c2ccc(S(=O)(=O)NC[C@H](O)CN)c(S(N)(=O)=O)c2-c2nn[nH]n2)CC1 [Example 190, (R)—N1-(3-amino-2-hydroxypropyl)-4-(4-(N-(2-aminoethyl)sulfamoyl)piperidin-1-yl)-3-(2H-tetrazol-5-yl)benzene-1,2-disulfonamide] | 0.67 | 0.61 | 0.09 | 0.85 | 0.78 | 1.56 | 3.13 | 0.78 | 1.00 | 0.78
NC[C@@H]1CCN(c2ccc(S(=O)(=O)N[C@@H]3CCNC3)c(S(N)(=O)=O)c2-c2nn[nH]n2)C[C@@H]1F (racemic) [Example 7] | 0.68 | 3.49 | 0.24 | 4.46 | 0.39 | 0.78 | 0.20 | 0.78 | 2.00 | 0.39
NS(=O)(=O)c1c(S(=O)(=O)N[C@@H]2CCNC2)ccc(N2CCCCC2=O)c1-c1nn[nH]n1 [Example 154, (R)-4-(2-oxopiperidin-1-yl)-N1-(pyrrolidin-3-yl)-3-(2H-tetrazol-5-yl)benzene-1,2-disulfonamide] | 0.35 | 8.46 | 0.26 | 0.73 | 1.56 | 6.25 | 1.56 | 3.13 | 2.00 | 1.56
NS(=O)(=O)c1c(S(=O)(=O)N[C@@H]2CCNC2)ccc(N2CCC(c3c[nH]cn3)CC2)c1-c1nn[nH]n1 [Example 166, (R)-4-(4-(1H-imidazol-4-yl)piperidin-1-yl)-N1-(pyrrolidin-3-yl)-3-(2H-tetrazol-5-yl)benzene-1,2-disulfonamide] | 0.12 | 0.22 | 0.09 | 0.53 | 0.78 | 1.56 | 0.78 | 0.78 | 1.00 | 0.78
NC[C@@H](O)CNS(=O)(=O)c1ccc(N2CCC(C(N)CO)CC2)c(-c2nn[nH]n2)c1S(N)(=O)=O (mixture of isomers) [Example 182, 4-(4-(1-Amino-2-hydroxyethyl)piperidin-1-yl)-N1-((R)-3-amino-2-hydroxypropyl)-3-(2H-tetrazol-5-yl)benzene-1,2-disulfonamide] | 3.77 | 4 | 0.27 | 3.82 | 0.78 | 1.56 | 0.39 | 0.78 | 1.00 | 0.78
NCCN1CCN(c2ccc(S(=O)(=O)N[C@@H]3CCNC3)c(S(N)(=O)=O)c2-c2nnn[nH]2)CC1 [Example 76, 4-[4-(2-aminoethyl)piperazin-1-yl]-N1-[(3R)-pyrrolidin-3-yl]-3-(1H-tetrazol-5-yl)benzene-1,2-disulfonamide] | 4.35 | 10.7 | 1.6 | 18.1 | 3.13 | 3.13 | 1.56 | 1.56 | 1.00 | 1.56
NC[C@@H](O)CNS(=O)(=O)c1ccc(N2CCC(CNCCO)CC2)c(-c2nn[nH]n2)c1S(N)(=O)=O [Example 123, (R)-N1-(3-amino-2-hydroxypropyl)-4-(4-(((2-hydroxyethyl)amino)methyl)piperidin-1-yl)-3-(2H-tetrazol-5-yl)benzene-1,2-disulfonamide] | 10.8 | 6.18 | 0.25 | 7.51 | 0.39 | 1.56 | 0.39 | 1.56 | 2.00 | 0.78
NCCC1CN(c2ccc(S(=O)(=O)NC[C@H](O)CN)c(S(N)(=O)=O)c2-c2nn[nH]n2)C1 [Example 144, (R)-N1-(3-amino-2-hydroxypropyl)-4-(3-(2-aminoethyl)azetidin-1-yl)-3-(2H-tetrazol-5-yl)benzene-1,2-disulfonamide] | 111 | 89.6 | 4.23 | 200 | 6.25 | 3.13 | 3.13 | 12.50 | 4.00 | 3.13
CC1(C)CN(c2ccc(S(=O)(=O)NC[C@H](O)CN)c(S(N)(=O)=O)c2-c2nn[nH]n2)CCN1CCO [Example 173, (R)-N1-(3-amino-2-hydroxypropyl)-4-(4-(2-hydroxyethyl)-3,3-dimethylpiperazin-1-yl)-3-(2H-tetrazol-5-yl)benzene-1,2-disulfonamide] | 19.8 | 10.5 | 13.7 | 114 | 3.13 | 6.25 | 1.56 | 6.25 | 4.00 | 1.56
NS(=O)(=O)c1c(S(=O)(=O)N[C@@H]2CCNC2)ccc(N2CC[C@@H](CO)C2)c1-c1nnn[nH]1 [Example 70, 4-[(3R)-3-(hydroxymethyl)pyrrolidin-1-yl]-N1-[(3R)-pyrrolidin-3-yl]-3-(1H-tetrazol-5-yl)benzene-1,2-disulfonamide] | 0.45 | 0.51 | 0.57 | 1.25 | 3.91 | 7.81 | 3.91 | 2.34 | 1.20 | 1.95
